Laboratory results as given in paper PMC4859819 (Molecular Pharmacology, 2016).

Experiments:
Assay in all cases: two-electrode voltage clamp, Xenopus oocytes
Format in all cases: cell-based
[1] = target: T1, GluN1/GluN2B receptor (rat GluN1-1a, mouse GluN2B) (Rattus norvegicus; Mus musculus, UniProt P35439+Q01097, P35439:Y109C)
T1 construct: gene Grin1; full-length receptors from pcDNA3-based plasmids, Xenopus laevis oocytes, cDNA ratio 1:1; heterotetramer, usually two GluN1 and two GluN2
Source text: (§1) two-electrode voltage clamp, Xenopus oocytes on GluN1/GluN2B receptor (rat GluN1-1a, mouse GluN2B)

[2] = target: T2, GluN1/GluN2B receptor (rat GluN1-1a, mouse GluN2B) (Rattus norvegicus; Mus musculus, UniProt P35439+Q01097, Q01097:A135P)
T2 construct: gene Grin1; full-length receptors from pcDNA3-based plasmids, Xenopus laevis oocytes, cDNA ratio 1:1; heterotetramer, usually two GluN1 and two GluN2
Source text: as §1

[3] = target: T3, GluN1/GluN2B receptor (rat GluN1-1a, mouse GluN2B) (Rattus norvegicus; Mus musculus, UniProt P35439+Q01097)
T3 construct: gene Grin1; full-length receptors from pcDNA3-based plasmids, Xenopus laevis oocytes, cDNA ratio 1:1; heterotetramer, usually two GluN1 and two GluN2
Source text: as §1

[4] = target: T4, GluN1/GluN2B receptor (rat GluN1-1a, mouse GluN2B) (Rattus norvegicus; Mus musculus, UniProt P35439+Q01097, Q01097:P177C)
T4 construct: gene Grin1; full-length receptors from pcDNA3-based plasmids, Xenopus laevis oocytes, cDNA ratio 1:1; heterotetramer, usually two GluN1 and two GluN2
Source text: as §1

[5] = target: T5, GluN1/GluN2B receptor (rat GluN1-1a, mouse GluN2B) (Rattus norvegicus; Mus musculus, UniProt P35439+Q01097, Q01097:Q110G)
T5 construct: gene Grin1; full-length receptors from pcDNA3-based plasmids, Xenopus laevis oocytes, cDNA ratio 1:1; heterotetramer, usually two GluN1 and two GluN2
T5 sequence (Q01097 27-1482 Q110G, other chains not shown): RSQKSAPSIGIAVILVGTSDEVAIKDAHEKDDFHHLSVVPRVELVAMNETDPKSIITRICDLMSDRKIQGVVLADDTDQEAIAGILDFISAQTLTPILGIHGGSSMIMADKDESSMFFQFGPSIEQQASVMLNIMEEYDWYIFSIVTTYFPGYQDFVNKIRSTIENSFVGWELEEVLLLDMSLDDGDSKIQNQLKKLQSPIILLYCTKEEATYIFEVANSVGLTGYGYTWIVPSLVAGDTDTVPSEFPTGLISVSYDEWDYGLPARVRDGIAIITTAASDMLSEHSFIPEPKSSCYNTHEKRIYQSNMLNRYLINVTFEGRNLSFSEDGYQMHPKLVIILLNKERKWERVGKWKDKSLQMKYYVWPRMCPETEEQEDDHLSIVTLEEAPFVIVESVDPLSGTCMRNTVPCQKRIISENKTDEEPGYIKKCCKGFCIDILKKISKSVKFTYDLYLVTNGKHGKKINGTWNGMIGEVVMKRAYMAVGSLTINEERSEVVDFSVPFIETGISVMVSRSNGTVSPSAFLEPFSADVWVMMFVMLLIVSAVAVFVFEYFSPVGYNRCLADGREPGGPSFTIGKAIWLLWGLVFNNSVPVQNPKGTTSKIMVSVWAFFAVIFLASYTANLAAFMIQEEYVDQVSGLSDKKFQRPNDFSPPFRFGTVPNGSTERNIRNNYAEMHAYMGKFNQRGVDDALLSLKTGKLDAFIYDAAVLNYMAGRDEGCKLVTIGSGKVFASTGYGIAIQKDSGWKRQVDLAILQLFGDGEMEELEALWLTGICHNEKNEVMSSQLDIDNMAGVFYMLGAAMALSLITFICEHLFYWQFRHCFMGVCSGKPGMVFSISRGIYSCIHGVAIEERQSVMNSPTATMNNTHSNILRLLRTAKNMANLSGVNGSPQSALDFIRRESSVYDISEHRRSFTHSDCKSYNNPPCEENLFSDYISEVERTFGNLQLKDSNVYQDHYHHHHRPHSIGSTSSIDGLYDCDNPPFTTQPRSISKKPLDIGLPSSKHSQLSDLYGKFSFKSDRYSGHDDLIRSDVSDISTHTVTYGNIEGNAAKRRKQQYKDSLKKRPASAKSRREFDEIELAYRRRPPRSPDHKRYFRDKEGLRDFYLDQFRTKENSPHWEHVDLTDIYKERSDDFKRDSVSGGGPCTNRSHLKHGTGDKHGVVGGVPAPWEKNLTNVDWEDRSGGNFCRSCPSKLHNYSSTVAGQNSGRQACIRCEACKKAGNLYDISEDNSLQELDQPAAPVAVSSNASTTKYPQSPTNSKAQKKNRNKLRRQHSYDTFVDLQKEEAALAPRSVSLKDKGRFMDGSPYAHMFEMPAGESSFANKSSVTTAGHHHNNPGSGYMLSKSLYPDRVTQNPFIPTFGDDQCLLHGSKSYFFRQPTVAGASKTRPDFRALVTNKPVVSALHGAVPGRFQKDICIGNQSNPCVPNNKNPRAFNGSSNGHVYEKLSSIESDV
Source text: as §1

[6] = target: T6, GluN1/GluN2B receptor (rat GluN1-1a, mouse GluN2B) (Rattus norvegicus; Mus musculus, UniProt P35439+Q01097, P35439:Y109S)
T6 construct: gene Grin1; full-length receptors from pcDNA3-based plasmids, Xenopus laevis oocytes, cDNA ratio 1:1; heterotetramer, usually two GluN1 and two GluN2
Source text: as §1

[7] = target: T7, GluN1/GluN2B receptor (rat GluN1-1a, mouse GluN2B) (Rattus norvegicus; Mus musculus, UniProt P35439+Q01097, Q01097:F114S)
T7 construct: gene Grin1; full-length receptors from pcDNA3-based plasmids, Xenopus laevis oocytes, cDNA ratio 1:1; heterotetramer, usually two GluN1 and two GluN2
Source text: as §1

[8] = target: T8, GluN1/GluN2B receptor (rat GluN1-1a, mouse GluN2B) (Rattus norvegicus; Mus musculus, UniProt P35439+Q01097, Q01097:A135G)
T8 construct: gene Grin1; full-length receptors from pcDNA3-based plasmids, Xenopus laevis oocytes, cDNA ratio 1:1; heterotetramer, usually two GluN1 and two GluN2
T8 sequence (Q01097 27-1482 A135G, other chains not shown): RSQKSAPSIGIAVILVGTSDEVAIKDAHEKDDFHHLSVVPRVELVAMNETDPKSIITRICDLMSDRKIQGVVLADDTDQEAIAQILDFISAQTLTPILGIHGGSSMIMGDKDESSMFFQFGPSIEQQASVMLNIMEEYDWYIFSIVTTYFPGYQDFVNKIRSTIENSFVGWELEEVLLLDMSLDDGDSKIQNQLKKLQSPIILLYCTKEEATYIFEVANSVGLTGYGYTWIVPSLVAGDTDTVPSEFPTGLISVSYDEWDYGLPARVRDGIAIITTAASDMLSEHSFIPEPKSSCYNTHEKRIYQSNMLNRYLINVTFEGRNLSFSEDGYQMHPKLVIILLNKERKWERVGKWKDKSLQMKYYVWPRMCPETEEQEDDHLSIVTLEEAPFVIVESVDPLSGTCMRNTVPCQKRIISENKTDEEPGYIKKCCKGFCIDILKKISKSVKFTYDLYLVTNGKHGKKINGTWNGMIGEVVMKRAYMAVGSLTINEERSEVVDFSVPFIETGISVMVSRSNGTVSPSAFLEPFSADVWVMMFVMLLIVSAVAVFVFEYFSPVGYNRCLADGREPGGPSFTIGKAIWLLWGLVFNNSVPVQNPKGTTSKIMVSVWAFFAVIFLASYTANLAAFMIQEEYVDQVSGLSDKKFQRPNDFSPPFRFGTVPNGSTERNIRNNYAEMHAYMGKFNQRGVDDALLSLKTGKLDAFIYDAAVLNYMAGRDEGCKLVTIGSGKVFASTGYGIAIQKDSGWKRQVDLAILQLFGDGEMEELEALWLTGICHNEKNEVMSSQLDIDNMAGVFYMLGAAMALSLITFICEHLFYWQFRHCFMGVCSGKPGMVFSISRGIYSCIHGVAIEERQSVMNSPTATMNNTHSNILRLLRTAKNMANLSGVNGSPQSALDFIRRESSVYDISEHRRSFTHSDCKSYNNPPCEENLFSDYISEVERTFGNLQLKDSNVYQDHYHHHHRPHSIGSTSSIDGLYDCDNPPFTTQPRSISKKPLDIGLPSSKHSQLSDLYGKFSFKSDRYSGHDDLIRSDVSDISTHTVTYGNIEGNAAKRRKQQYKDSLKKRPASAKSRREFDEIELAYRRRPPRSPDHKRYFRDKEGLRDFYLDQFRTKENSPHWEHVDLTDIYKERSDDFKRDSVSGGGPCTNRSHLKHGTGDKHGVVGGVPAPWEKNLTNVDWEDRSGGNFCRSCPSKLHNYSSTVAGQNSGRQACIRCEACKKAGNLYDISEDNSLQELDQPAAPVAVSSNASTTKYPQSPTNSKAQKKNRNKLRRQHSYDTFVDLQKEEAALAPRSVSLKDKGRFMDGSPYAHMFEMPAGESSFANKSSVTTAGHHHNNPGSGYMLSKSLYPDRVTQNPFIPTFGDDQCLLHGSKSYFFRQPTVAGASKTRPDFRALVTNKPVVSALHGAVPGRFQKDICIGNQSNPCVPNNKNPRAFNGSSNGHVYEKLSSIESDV
Source text: as §1

[9] = target: T9, GluN1/GluN2B receptor (rat GluN1-1a, mouse GluN2B) (Rattus norvegicus; Mus musculus, UniProt P35439+Q01097, P35439:L135H)
T9 construct: gene Grin1; full-length receptors from pcDNA3-based plasmids, Xenopus laevis oocytes, cDNA ratio 1:1; heterotetramer, usually two GluN1 and two GluN2
Source text: as §1

[10] = target: T10, GluN1/GluN2B receptor (rat GluN1-1a, mouse GluN2B) (Rattus norvegicus; Mus musculus, UniProt P35439+Q01097, Q01097:F176A)
T10 construct: gene Grin1; full-length receptors from pcDNA3-based plasmids, Xenopus laevis oocytes, cDNA ratio 1:1; heterotetramer, usually two GluN1 and two GluN2
T10 sequence (Q01097 27-1482 F176A, other chains not shown): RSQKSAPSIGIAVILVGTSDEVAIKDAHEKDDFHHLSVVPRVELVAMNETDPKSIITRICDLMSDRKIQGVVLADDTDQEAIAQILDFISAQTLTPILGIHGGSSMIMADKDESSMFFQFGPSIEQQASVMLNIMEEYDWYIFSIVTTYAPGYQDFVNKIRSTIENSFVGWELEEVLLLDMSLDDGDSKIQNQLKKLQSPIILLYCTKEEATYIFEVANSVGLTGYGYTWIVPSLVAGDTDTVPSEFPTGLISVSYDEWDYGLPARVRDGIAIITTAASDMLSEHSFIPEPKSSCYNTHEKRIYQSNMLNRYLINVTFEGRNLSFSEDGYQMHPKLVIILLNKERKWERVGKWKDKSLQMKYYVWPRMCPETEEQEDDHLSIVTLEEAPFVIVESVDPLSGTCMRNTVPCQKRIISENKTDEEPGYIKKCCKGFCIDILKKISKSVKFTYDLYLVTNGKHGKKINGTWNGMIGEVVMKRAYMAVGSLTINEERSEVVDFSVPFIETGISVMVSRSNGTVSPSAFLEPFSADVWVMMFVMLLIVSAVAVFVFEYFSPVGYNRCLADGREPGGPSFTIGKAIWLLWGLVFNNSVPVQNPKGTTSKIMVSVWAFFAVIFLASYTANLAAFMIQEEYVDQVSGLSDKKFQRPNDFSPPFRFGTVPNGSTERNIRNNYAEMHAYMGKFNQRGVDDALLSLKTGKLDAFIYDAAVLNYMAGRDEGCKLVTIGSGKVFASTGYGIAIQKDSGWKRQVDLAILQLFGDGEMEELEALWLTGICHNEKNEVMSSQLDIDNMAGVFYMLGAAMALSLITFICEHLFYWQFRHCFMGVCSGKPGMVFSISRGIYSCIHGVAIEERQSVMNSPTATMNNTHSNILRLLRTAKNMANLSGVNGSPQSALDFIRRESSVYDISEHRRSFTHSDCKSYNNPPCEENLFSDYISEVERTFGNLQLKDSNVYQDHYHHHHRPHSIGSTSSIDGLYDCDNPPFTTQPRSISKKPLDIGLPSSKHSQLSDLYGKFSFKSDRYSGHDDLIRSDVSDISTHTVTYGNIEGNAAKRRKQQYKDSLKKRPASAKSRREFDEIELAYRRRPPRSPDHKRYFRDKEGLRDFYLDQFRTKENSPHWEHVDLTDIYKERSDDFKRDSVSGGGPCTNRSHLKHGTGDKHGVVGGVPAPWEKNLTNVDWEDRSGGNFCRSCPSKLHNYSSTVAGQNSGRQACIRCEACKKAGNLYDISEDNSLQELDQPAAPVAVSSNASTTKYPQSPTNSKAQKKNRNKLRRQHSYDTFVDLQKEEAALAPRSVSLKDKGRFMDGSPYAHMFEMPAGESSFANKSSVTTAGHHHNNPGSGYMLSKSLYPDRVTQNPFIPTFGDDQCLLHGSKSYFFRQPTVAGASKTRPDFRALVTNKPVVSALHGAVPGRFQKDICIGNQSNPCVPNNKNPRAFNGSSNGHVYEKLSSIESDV
Source text: as §1

[11] = target: T11, GluN1/GluN2B receptor (rat GluN1-1a, mouse GluN2B) (Rattus norvegicus; Mus musculus, UniProt P35439+Q01097, P35439:L135W)
T11 construct: gene Grin1; full-length receptors from pcDNA3-based plasmids, Xenopus laevis oocytes, cDNA ratio 1:1; heterotetramer, usually two GluN1 and two GluN2
Source text: as §1

For Cc1nccn1Cc1cc(-c2ccc(F)c(C(F)F)c2)cnn1 [compound 1, 5-(3-(difluoromethyl)-4-fluorophenyl)-3-((2-methyl-1H-imidazol-1-yl)methyl)pyridazine], the IC50 [1] was 7300 ± 260 nM, the IC50 [2] was 404 ± 15 nM and the IC50 [3] was 12 ± 0.2 nM. The IC50 [4] was 75 ± 12 nM, the IC50 [5] was 502 ± 14 nM and the IC50 [6] was 9620 ± 700 nM. For the same compound, the IC50 [7] was 676 ± 10 nM, the IC50 [8] was 72 ± 7 nM and the IC50 [9] was 71 ± 7 nM. For the same compound, the IC50 [10] was 11400 ± 1000 nM and the IC50 [11] was 9 ± 1 nM.
